Measurements as given in patent US20100285959A1, “HERBICIDAL MIXTURES” (priority 2006, published 2010).

System: redroot pigweed (AMARE)
Experiment: Test 24 growth chamber, postemergence
Type: in vivo, Amaranthus retroflexus
Conditions: 17 DAA
Protocol: Plants were treated postemergence at the 2-4 leaf growth stage, and each treatment was replicated three times. […] Plants were watered as needed. […] Results for barley and wheat are the means across varieties of the three replicates, and results for the weeds are the means of the three replicates.

Which “AMARE Obs (scale 0 to 100)” value (Cpd 2 4 g a.i./ha) does the source give for `COC(=O)c1nc(C2CC2)nc(N)c1Cl` [Compound 2, methyl 6-amino-5-chloro-2-cyclopropyl-4-pyrimidinecarboxylate] here?
The value was 63.

What about the “AMARE Obs (scale 0 to 100)” value (Cpd 2 8 g a.i./ha) of the same molecule?
The value was 67.

And the “AMARE Obs (scale 0 to 100)” value (Cpd 2 16 g a.i./ha)?
The value was 75.
